The text below walks through data of patent US12465590B2, “Oxalamido-substituted tricyclic inhibitors of hepatitis b virus” (priority 2019, dated 2025).

Molecules are shown by their SMILES.

The first assay has as its system HBV. Kind of assay: HBV inhibition assay in HepAD38 cells (extracellular HBV DNA by direct qPCR). Format: cell-based, HBV genotype D subtype ayw. To be noted: 96 hours, read-out: HBV inh EC50. From the text: HepAD38 cell line (Ladner et al., Antimicrob Agents Chemother, 1997, 41, 1715-20) was used for HBV inhibition assays. HepAD38 is a subclone, derived from hepatoblastoma cell line HepG2 (ATCC® Number: HB-8065), that expresses HBV genome (genotype D subtype ayw) under the transcriptional control of a tetracycline-responsive promoter in a TET-OFF system: addition of doxycycline, an antibiotic belonging to the class of tetracycline, suppresses HBV replication, while its removal switches on the process allowing HBV viral particles release in the cell supernatant. HepAD38 cell line is maintained in DMEM/F12, supplemented with 10% of fetal bovine serum, 1% of glutamine, 1% of penicillin/streptomycin, 0.4 mg/ml G418 and 0.3 ug/ml tetracycline. For the HBV inhibition assay, doxycycline-free medium is used in order to allow virion production.
HBV inhibition activity in vitro was performed in 96 multiwell plates. During the initial (primary) screening, compounds were first tested in triplicates at concentrations of 0.02 μM, 0.1 μM, 0.5 μM and 1 μM. For selected compounds, an 8-point dose-response curve was obtained using 1:2 serial dilutions (starting from 0.01 μM, 0.1 μM, 0.4 μM or 5 μM, depending on the degree of inhibition observed during the primary screening). From the dose-response curves, half maximal effective concentration (EC50) could be calculated (see also below).
In more detail, compounds—typically dissolved in DMSO stock solutions—were diluted to 2× the final desired concentration in 100 μl of the above medium (without doxycycline) and plated in three replicates in the 96-well plates.
Simultaneously, HepAD38 cells—extensively pre-washed in doxycycline-free medium in order to induce HBV production—were suspended at 2*10^4 cells in 100 μl of doxycycline-free medium and added to each well of the plate, to yield a final assay volume of 200 μl.
DMSO, used for stock solutions and compounds dilutions, was always present in the assays at a final concentration of 0.5%.
Plates were then incubated 96 hours at 37° C. and then subjected to cell viability assays and extracellular HBV quantification, in order to evaluate both the cytotoxic potential and the antiviral activity of compounds.
Cytotoxicity was assessed by a commercial fluorescence assay that measures the metabolic activity of cells, directly related to cell viability (Cell Titer Blue, Promega). For each compound, cytotoxicity was evaluated at the same concentration employed to evaluate its anti-HBV activity. Anti-HBV activity was evaluated by quantification of extracellular HBV DNA with direct qPCR. In particular, supernatant was collected and centrifuged for cell debris clarification, viral DNA was extracted from virions by addition of lysis buffer (1 mM 1,4-dithiothreitol, 0.2% sodium dodecyl sulphate) and incubated at 95° C. for 10 min. Samples were then diluted 1:40 and real time PCR amplification was performed with SYBR green assay (Power SYBR™ Green PCR Master Mix-Thermo Fisher Scientific) and specific HBV primer (HBV-DF:5′-[…]-3′ (SEQ ID No. 1), HBV-DR:5′-[…]-3′ (SEQ ID No. 2)).
Antiviral activity data for each compound are reported as EC50 value (see Table 1 legend). Excel and Graphpad Prism programs are typically used for data elaboration and EC50 calculation.
Background: In qPCR the cycle at which signal appears reflects the starting amount.
As to `Cc1cc(NC(=O)c2c3c(cn2C)S(=O)(=O)NC2CN(C(=O)C(=O)N[C@H](C)C(F)(F)F)CCC2CO3)ccc1F` (mixture of isomers) [Example E66, Trans-N-(4-fluoro-3-methylphenyl)-2-methyl-7-(2-oxo-2-(((R)-1,1,1-trifluoropropan-2-yl)amino)acetyl)-5,5a,6,7,8,9,9a,10-octahydro-2H-pyrido[3,4-f]pyrrolo[3,4-b][1,4,5]oxathiazocine-1-carboxamide 4,4-dioxide], the EC50 was less than 500 nM. The same measure, in the same setting: next, `Cc1cc(NC(=O)c2c3c(cn2C)S(=O)(=O)NC2CCN(C(=O)C(=O)N[C@H](C)C(F)(F)F)CC2CO3)ccc1F` (mixture of isomers) [Example E72, Cis-N-(4-fluoro-3-methylphenyl)-2-methyl-8-(2-oxo-2-(((R)-1,1,1-trifluoropropan-2-yl)amino)acetyl)-5,5a,6,7,8,9,9a,10-octahydro-2H-pyrido[4,3-f]pyrrolo[3,4-b][1,4,5]oxathiazocine-1-carboxamide 4,4-dioxide]: less than 500 nM; `Cc1cc(NC(=O)c2c3c(cn2C)S(=O)(=O)NC2CN(C(=O)C(=O)N[C@@H](C)C(F)(F)F)CCC2CO3)ccc1F` (mixture of isomers) [Example E71, Trans-N-(4-fluoro-3-methylphenyl)-2-methyl-7-(2-oxo-2-(((S)-1,1,1-trifluoropropan-2-yl)amino)acetyl)-5,5a,6,7,8,9,9a,10-octahydro-2H-pyrido[3,4-f]pyrrolo[3,4-b][1,4,5]oxathiazocine-1-carboxamide 4,4-dioxide]: less than 500 nM; `Cc1cc(NC(=O)c2c3c(cn2C)S(=O)(=O)NC2CN(C(=O)C(=O)NC4CC4)CCC2CO3)ccc1F` (racemic) [Example E67, Trans-7-(2-(cyclopropylamino)-2-oxoacetyl)-N-(4-fluoro-3-methylphenyl)-2-methyl-5,5a,6,7,8,9,9a,10-octahydro-2H-pyrido[3,4-f]pyrrolo[3,4-b][1,4,5]oxathiazocine-1-carboxamide 4,4-dioxide]: less than 500 nM.

On to `Cc1cc(NC(=O)c2c3c(cn2C)S(=O)(=O)NC2CN(C(=O)C(=O)NC(C)(C)C(F)(F)F)CCC2CO3)ccc1F` (racemic) [Example E69, Trans-N-(4-fluoro-3-methylphenyl)-2-methyl-7-(2-oxo-2-((1,1,1-trifluoro-2-methylpropan-2-yl)amino)acetyl)-5,5a,6,7,8,9,9a,10-octahydro-2H-pyrido[3,4-f]pyrrolo[3,4-b][1,4,5]oxathiazocine-1-carboxamide 4,4-dioxide], for which the EC50 was less than 500 nM.

Still in this assay, the particulars now being: Hepatitis B virus, 96 hours, read-out: HBV inh EC50.
As to `Cc1cc(NC(=O)c2c3c(cn2C)S(=O)(=O)NC2CN(C(=O)C(=O)NC4CC4)CCC2CO3)ccc1F` (racemic) [Example E64, Cis-7-(2-(cyclopropylamino)-2-oxoacetyl)-N-(4-fluoro-3-methylphenyl)-2-methyl-5,5a,6,7,8,9,9a,10-octahydro-2H-pyrido[3,4-f]pyrrolo[3,4-b][1,4,5]oxathiazocine-1-carboxamide 4,4-dioxide], the EC50 was less than 500 nM. The same measure, in the same setting: next, `Cc1cc(NC(=O)c2c3c(cn2C)S(=O)(=O)NC2CCN(C(=O)C(=O)NC4CC4)CC2CO3)ccc1F` (racemic) [Example E54, Trans-8-(2-(cyclopropylamino)-2-oxoacetyl)-N-(4-fluoro-3-methylphenyl)-2-methyl-5,5a,6,7,8,9,9a,10-octahydro-2H-pyrido[4,3-f]pyrrolo[3,4-b][1,4,5]oxathiazocine-1-carboxamide 4,4-dioxide]: less than 500 nM; `Cc1cc(NC(=O)c2c3c(cn2C)S(=O)(=O)NC2CCN(C(=O)C(=O)N[C@@H](C)C(F)(F)F)CC2CO3)ccc1F` (mixture of isomers) [Example E56, Trans-N-(4-fluoro-3-methylphenyl)-2-methyl-8-(2-oxo-2-(((S)-1,1,1-trifluoropropan-2-yl)amino)acetyl)-5,5a,6,7,8,9,9a,10-octahydro-2H-pyrido[4,3-f]pyrrolo[3,4-b][1,4,5]oxathiazocine-1-carboxamide 4,4-dioxide]: less than 500 nM. For the molecule `Cc1cc(NC(=O)c2c3c(cn2C)S(=O)(=O)NC2CN(C(=O)C(=O)NCC(F)(F)F)CCC2CO3)ccc1F` (racemic) [Example E61, Cis-N-(4-fluoro-3-methylphenyl)-2-methyl-7-(2-oxo-2-((2,2,2-trifluoroethyl)amino)acetyl)-5,5a,6,7,8,9,9a,10-octahydro-2H-pyrido[3,4-f]pyrrolo[3,4-b][1,4,5]oxathiazocine-1-carboxamide 4,4-dioxide], the EC50 is less than 500 nM. Same read-out and setting: next, `Cc1cc(NC(=O)c2c3c(cn2C)S(=O)(=O)NC2CN(C(=O)C(=O)N[C@@H](C)C(F)(F)F)CCC2CO3)ccc1F` (mixture of isomers) [Example E65, Cis-N-(4-fluoro-3-methylphenyl)-2-methyl-7-(2-oxo-2-(((S)-1,1,1-trifluoropropan-2-yl)amino)acetyl)-5,5a,6,7,8,9,9a,10-octahydro-2H-pyrido[3,4-f]pyrrolo[3,4-b][1,4,5]oxathiazocine-1-carboxamide 4,4-dioxide]: less than 500 nM; `Cc1cc(NC(=O)c2c3c(cn2C)S(=O)(=O)N[C@H]2CN(C(=O)C(=O)N[C@H](C)C(F)(F)F)C[C@@]2(O)CO3)ccc1F` [Example E75, (3aS,10aS)—N-(4-fluoro-3-methylphenyl)-10a-hydroxy-7-methyl-2-(2-oxo-2-(((R)-1,1,1-trifluoropropan-2-yl)amino)acetyl)-2,3,3a,4,10,10a-hexahydro-1H,7H-dipyrrolo[3,4-b:3′,4′-f][1,4,5]oxathiazocine-8-carboxamide 5,5-dioxide]: less than 500 nM; `Cc1cc(NC(=O)c2c3c(cn2C)S(=O)(=O)NC2CCN(C(=O)C(=O)N4CC(F)(F)C4)CC2CO3)ccc1F` (racemic) [Example E55, Trans-8-(2-(3,3-difluoroazetidin-1-yl)-2-oxoacetyl)-N-(4-fluoro-3-methylphenyl)-2-methyl-5,5a,6,7,8,9,9a,10-octahydro-2H-pyrido[4,3-f]pyrrolo[3,4-b][1,4,5]oxathiazocine-1-carboxamide 4,4-dioxide]: less than 500 nM. Take `Cc1cc(NC(=O)c2c3c(cn2C)S(=O)(=O)NC2CN(C(=O)C(=O)N4CC(F)(F)C4)CCC2CO3)ccc1F` (racemic) [Example E63, Cis-7-(2-(3,3-difluoroazetidin-1-yl)-2-oxoacetyl)-N-(4-fluoro-3-methylphenyl)-2-methyl-5,5a,6,7,8,9,9a,10-octahydro-2H-pyrido[3,4-f]pyrrolo[3,4-b][1,4,5]oxathiazocine-1-carboxamide 4,4-dioxide]: the half-maximal effective concentration (EC50) was less than 500 nM.

In a further assay the test system is HBV.
Assay: not given
To be noted: Phase 1b clinical studies; cited from earlier work.
On to `O=C(Nc1cc(F)c(F)c(F)c1)c1ccc(F)c(S(=O)(=O)N2CCC(O)CC2)c1` [NVR3-778], for which the “HBV DNA” value is listed as “significant reduction” and the “serum HBV RNA” value is given as “significant reduction”.

In general, EC50 refers to the concentration needed to bring the measured effect to its halfway point.
